Where two headings read alike, the source gives them in different places. No end group written: not given here.

Experiment [1] deals with Sirt3. The note with it: read-out: KM apparent affinity for cosubstrate; cited from earlier work.
Experiment [2] has as its target T1, human Sirt5 (Homo sapiens, UniProt Q9NXA8).
T1 construct: (residues 34- 302); 6x His tag with TEV protease cleavage site (N); made in house; host or cells: E. coli BL21DE3 Rosetta 2
T1 sequence (Q9NXA8 34-302): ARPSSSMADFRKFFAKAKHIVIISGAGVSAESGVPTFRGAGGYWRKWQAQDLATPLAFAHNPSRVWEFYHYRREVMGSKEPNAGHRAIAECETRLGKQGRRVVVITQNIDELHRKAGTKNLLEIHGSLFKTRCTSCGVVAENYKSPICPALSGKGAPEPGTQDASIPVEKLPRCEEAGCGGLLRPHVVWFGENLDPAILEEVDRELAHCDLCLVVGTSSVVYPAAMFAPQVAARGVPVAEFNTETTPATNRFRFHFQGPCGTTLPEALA
Nature of the experiment: Binding analysis by microscale thermophoresis, Sirt5. How it is done: For labeling, 100 µM Sirtuin were incubated with 200 µM fluorescein isothiocyanate (Thermo Fisher) in 20 mM HEPES pH 7.5, 150 mM NaCl over night at 4°C in the dark. Non-bound dye was removed using a Nap25 column (GE Healthcare). Dissociation constants were determined from microscale thermophoresis using a Monolith NT.115 (NanoTemper Technologies, Munich, Germany). […] Dissociation constants were determined by non-linear fitting in GraFit.
For orientation: Microscale thermophoresis detects binding through changes in fluorescence in a small temperature gradient.

For experiment [3], the target named is T2, human Sirt3 (Homo sapiens, UniProt Q9NTG7).
T2 construct: human Sirt3 (residues 114-380); 6x His tag with TEV protease cleavage site (N); made in house; host or cells: E. coli BL21DE3 Rosetta 2
T2 sequence (Q9NTG7 114-380): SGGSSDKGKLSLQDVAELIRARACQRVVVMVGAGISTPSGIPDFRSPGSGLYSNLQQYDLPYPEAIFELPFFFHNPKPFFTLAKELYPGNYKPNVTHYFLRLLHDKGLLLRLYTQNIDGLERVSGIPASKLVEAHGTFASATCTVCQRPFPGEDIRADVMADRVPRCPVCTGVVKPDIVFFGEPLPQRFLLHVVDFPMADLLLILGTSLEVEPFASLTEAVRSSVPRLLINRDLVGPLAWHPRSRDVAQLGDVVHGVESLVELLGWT
Kind of experiment: Binding analysis by microscale thermophoresis, Sirt3. How it is done:
Non-bound dye was removed using a Nap25 column (GE Healthcare). Dissociation constants were determined from microscale thermophoresis using a Monolith NT.115 (NanoTemper Technologies, Munich, Germany). […] Dissociation constants were determined by non-linear fitting in GraFit.

Experiment [4] addresses T3, Sirt5Zf (Danio rerio, UniProt Q6DHI5).
T3 construct: zebrafish Sirt5 (residues 30- 298); 6x His tag with TEV protease cleavage site (N); made in house; host or cells: E. coli BL21DE3 Rosetta 2
T3 sequence (Q6DHI5 30-298): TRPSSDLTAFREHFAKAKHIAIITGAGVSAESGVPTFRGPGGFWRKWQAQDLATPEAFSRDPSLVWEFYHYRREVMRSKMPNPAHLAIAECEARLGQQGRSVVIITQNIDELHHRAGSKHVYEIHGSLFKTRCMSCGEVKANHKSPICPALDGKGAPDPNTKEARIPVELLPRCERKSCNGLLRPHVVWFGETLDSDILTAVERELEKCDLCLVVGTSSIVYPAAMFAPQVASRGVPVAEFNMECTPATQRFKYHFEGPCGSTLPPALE
Kind of experiment: MS-based peptide deacylation assay, zebrafish Sirt5. The note with it: deacetylation, CPS1 peptide (Fig. S3). It is filed as biochemical.
Protocol: (§1) Samples were diluted with 0.1% formic acid and filtered using 10 kDa cutoff concentrators. Samples were analyzed on an LC-ESI-MS system consisting of a Prominence HPLC (Shimadzu, Duisburg, Germany) with Sil20AC autosampler connected to an LTQ XL mass spectrometer (Thermo Fisher, Bremen, Germany). […] Extracted ion chromatograms (XICs) with mass windows of ±2 m/z were generated for the acylated and deacylated peptide, and peak areas were determined using automatic peak area detection of the Xcalibur Qual Browser module and further analyzed with Excel (Microsoft, Seattle, USA) or GraFit (Erithacus Software, West Sussex, UK).

The target of experiment [5] is T4, Sir2Af2 (Archaeoglobus fulgidus, UniProt O30124).
T4 construct: host or cells: E. coli BL21DE3 Rosetta2
T4 sequence (O30124 1-253): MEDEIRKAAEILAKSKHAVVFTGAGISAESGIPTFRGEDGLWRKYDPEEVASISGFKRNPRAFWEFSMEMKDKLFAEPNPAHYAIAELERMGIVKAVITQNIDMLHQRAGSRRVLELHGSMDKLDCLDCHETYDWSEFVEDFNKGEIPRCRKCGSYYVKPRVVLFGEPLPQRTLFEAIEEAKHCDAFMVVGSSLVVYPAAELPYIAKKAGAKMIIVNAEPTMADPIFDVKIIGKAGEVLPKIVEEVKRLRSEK
Nature of the experiment: MS-based peptide deacylation assay, Sir2Af2 wt. It is filed as biochemical. The following applies: for IC50: IC50 nicotinamide inhibition; for normalized desuccinylation [%]: succinylated Prx1-Lys197.
Protocol: as §1

Experiment [6] concerns the target Sir2Af2-Met70Arg (Archaeoglobus fulgidus, UniProt O30124, M70R). Nature of the experiment: MS-based peptide deacylation assay, Sir2Af2-Met70Arg variant. The note with it: for IC50: IC50 nicotinamide inhibition.
Protocol: as §1
Experiment [7] has as its target T5, human Sirt5 (human, UniProt Q9NXA8 37-310, labelled with fluorescein isothiocyanate (sites not given)).
T5 construct: Sirt5, human; a 'gene fragment' cloned into pET151/D-Topo
T5 sequence (looked up): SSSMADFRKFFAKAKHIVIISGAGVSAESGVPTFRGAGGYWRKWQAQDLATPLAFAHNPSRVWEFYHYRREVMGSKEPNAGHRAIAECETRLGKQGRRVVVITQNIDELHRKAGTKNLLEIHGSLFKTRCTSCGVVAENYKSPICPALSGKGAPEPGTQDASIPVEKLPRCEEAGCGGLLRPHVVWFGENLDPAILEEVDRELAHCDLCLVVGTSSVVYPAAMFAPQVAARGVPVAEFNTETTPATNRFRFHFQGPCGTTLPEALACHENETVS
Kind of experiment: MST; ligand (peptide) titrated to 100 nM fluorescein-labelled Sirtuin; mixtures preincubated 30 min at room temperature; Monolith NT.115; non-linear fitting in GraFit. The following applies: both partners purified.

Setting [8] is: 25 µM substrate peptide, read-out: Kd for NAD^+ under peptide saturation.
The mark [9] stands for this setting: in presence of 0.5 mM nicotinamide, read-out: Kd(NAD^+).
Setting [10] is: no nicotinamide, no peptide, read-out: Kd(NAD^+).
Where [11] appears, read: read-out: normalized deacetylation [%].

Sequence of Sir2Af2-Met70Arg (O30124 whole entry M70R): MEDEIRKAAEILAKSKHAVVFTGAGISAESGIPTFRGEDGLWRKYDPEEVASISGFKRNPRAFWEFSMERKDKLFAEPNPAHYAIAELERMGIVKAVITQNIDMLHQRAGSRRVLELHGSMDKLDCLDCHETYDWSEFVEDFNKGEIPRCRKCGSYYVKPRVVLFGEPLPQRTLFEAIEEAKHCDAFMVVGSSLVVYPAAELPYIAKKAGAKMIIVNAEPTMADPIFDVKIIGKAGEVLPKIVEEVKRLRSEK

The term Km denotes the substrate concentration at which the rate is half of its maximum. With `NC(=O)c1ccc[n+]([C@@H]2O[C@H](COP(=O)([O-])OP(=O)(O)OC[C@H]3O[C@@H](n4cnc5c(N)ncnc54)[C@H](O)[C@@H]3O)[C@@H](O)[C@H]2O)c1` [NAD^+], in experiment [1], the Km is 100 to 600 µM. Besides, the Kd was 200 ± 70 µM in experiment [2] (setting [8]); 920 ± 230 µM in experiment [2] (setting [9]); 980 ± 280 µM in experiment [2] (setting [10]); 260 ± 150 µM in experiment [3] (setting [8]); 830 ± 240 µM in experiment [3] (setting [9]); 710 ± 230 µM in experiment [3] (setting [10]).
The IC50 is the concentration needed to halve the response being measured. Lower therefore signals higher potency. On to `NC(=O)c1cccnc1` [nicotinamide], for which the IC50 in experiment [4] was 6900 ± 500 µM; in experiment [5] (acetyl-CPS1 substrate) it was 5800 ± 1600 µM; in experiment [5] (acetyl-Prx1 substrate) it was 1300 ± 300 µM; in experiment [5] (deacetylation, p53 peptide (Fig. S3)), 2100 ± 150 µM; in experiment [5] (succinyl-CPS1 substrate) it was 6600 ± 500 µM; in experiment [5] (succinyl-Prx1 substrate), > 10000 µM. The IC50 is > 10000 µM in experiment [6] (deacetylase activity, acetylated Prx1-Lys197) and 2800 ± 900 µM in experiment [6] (desuccinylase activity, succinylated Prx1-Lys197). Besides, the remaining activity at 1 µM in experiment [5] (NAM 1 µM, acetylated Prx1-Lys197, wt, read-out: normalized deacetylation [%]) is 88.7%; in experiment [6] (setting [11]), 100%. The “normalized desuccinylation [%]” value in experiment [5] (NAM 1 µM, wt) turned out to be 100.0%; in experiment [5] (NAM 10 µM, wt) it was 96.1%; in experiment [5] (NAM 100 µM, wt), 95.7%; in experiment [5] (NAM 1000 µM, wt), 88.3%; in experiment [5] (NAM 5000 µM, wt), 78.1%; in experiment [5] (NAM 10000 µM, wt), 69.1%. Besides, the remaining activity at 10 µM in experiment [5] (NAM 10 µM, acetylated Prx1-Lys197, wt, read-out: normalized deacetylation [%]) was found to be 101%; in experiment [6] (setting [11]), 98.1%. The remaining activity at 100 µM in experiment [5] (NAM 100 µM, acetylated Prx1-Lys197, wt, read-out: normalized deacetylation [%]) is 93%; in experiment [6] (setting [11]) it was 96.1%. Besides, the remaining activity at 500 µM in experiment [5] (NAM 500 µM, acetylated Prx1-Lys197, wt, read-out: normalized deacetylation [%]) came to 65.4%; in experiment [6] (setting [11]), 69.7%. The remaining activity at 1000 µM in experiment [5] (NAM 1000 µM, acetylated Prx1-Lys197, wt, read-out: normalized deacetylation [%]) was found to be 49.8%; in experiment [6] (setting [11]), 86.4%. Moreover, the remaining activity at 5000 µM was determined as 30.4% in experiment [5] (NAM 5000 µM, acetylated Prx1-Lys197, wt, read-out: normalized deacetylation [%]) and 71.4% in experiment [6] (setting [11]). Moreover, in experiment [6] (setting [11]), the remaining activity at 10000 µM came out at 52.6%.

B1: CPS1-Lys527 peptide (FKRGVL(acK)EYGVKV) (peptide)
peptide: FKRGVLK(Ac)EYGVKV
notes: carbamoyl phosphate synthetase 1 (CPS1), stretch around the acetylation site Lys527; also called CPS1 peptide; source: synthetic peptide, bought: GL Biochem (Shanghai)
Turning to B1, in experiment [7], the Kd is 2.3 ± 1.5 µM.

B2: ACS2-Lys642 peptide (TRSG(acK)VMR) (peptide)
peptide: TRSGK(Ac)VMR
notes: acetyl-CoA synthetase 2 (ACS2), stretch around the acetylation site Lys642; also called ACS2 peptide; source: synthetic peptide, bought: GL Biochem (Shanghai)
Take B2: the Kd in experiment [7] came to 2.1 ± 0.7 µM.

(Values after PMC3446968 (PLoS ONE, 2012).)
